Values of other authors, collected in US20230337663A1, “AGRICULTURAL COMPOSITION” (REVOLUTION BIOTECH LLC, priority 2020, published 2023).

Conditions: Ecolabel Lubricant Substance Classification List

Farnesene, mixture of isomers
toxicity label: non-toxic
